From US11219614B2, “Combination cancer therapy with pentaaza macrocyclic ring complex and ascorbate compound” (Galera Labs, LLC, priority 2016, dated 2022)

Columns and labels:
[1] = system: oral mucositis in head-and-neck cancer patients; conditions: head-and-neck cancer patients undergoing chemoradiation therapy; cited from earlier work
[2] = system: VEGFr inhibitor-induced pulmonary disease; conditions: rat model; cited from earlier work
[3] = system: tongue carcinoma cells (Cal27); experiment: clonogenic cell survival assay, Cal27; assay type: cell-based, Human
Method: (§1) FIG. 4 is a plot showing the surviving fraction of Cal27 cells for increasing amounts of ascorbate, as determined by a clonogenic cell survival assay used to determine the effects of the compound alone and in combination with a pentaaza macrocyclic ring complex (GC4419). Human tongue carcinoma cells (Cal27) were exponentially grown in culture for 48 hours. The cells were then treated with 5-20 μM GC4419 for 24 hours, and ascorbate (Asc) for one hour, followed by immediate clonogenic assay. The cells were trypsinized, counted, replated at varying lower densities and incubated.
(§2) FIG. 6 is a graph showing the surviving fraction of Cal 27 cells treated with ascorbate and combinations with including ascorbate. The effects of ascorbic acid (AA) in combination with a pentaaza macrocyclic ring complex (GC4419) was tested in a clonogenic cell survival assay to determine the effects of the combination alone and when paired with ionizing radiation. Human tongue carcinoma cells (Cal27) were exponentially grown in culture for 48 hours. The cells were then treated with 5 μM GC4419 for 3 hours and 10 pmol/cell ascorbate for 1 hour, either alone, in combination (GC+AA), and/or paired with a dose of ionizing radiation (2 Gy). After the ionizing radiation dose, the cells were trypsinized, counted, replated at varying lower densities and incubated. Plates were stained and counted for clonogenic survival assays.
as §1, with “The effect” for “FIG. 4 is a plot showing the surviving fraction”, “ascorbate was tested in” for “Cal27 cells for increasing amounts of ascorbate, as determined by”, “assay” for “assay used”, “incubated. Plates were stained and counted for clonogenic survival assays.” for “incubated.”
as §2, with “The” for “FIG. 6 is a graph showing the surviving fraction of Cal 27 cells treated with ascorbate and combinations with including ascorbate. The”

[4] = system: head and neck squamous cell carcinoma cells (SQ20B); experiment: clonogenic cell survival assay, SQ20B; assay type: cell-based, Human
Method: (§3) FIG. 5 is a plot showing the surviving fraction of SQ20B cells for increasing amounts of ascorbate, as determined by a clonogenic cell survival assay used to determine the effects of the compound alone and in combination with a pentaaza macrocyclic ring complex (GC4419). Human head and neck squamous cell carcinoma cells (SQ20B) were exponentially grown in culture for 48 hours. The cells were then treated with 5-20 μM GC4419 for 24 hours, followed by treatment with 5-20 pmol/cell ascorbate for 1 hour. The cells were then trypsinized, counted, replated at varying lower densities and incubated. Plates were stained and counted for clonogenic survival assays.
FIG. 7 is a graph showing the surviving fraction of SQ20B cells treated with ascorbate and combinations including ascorbate. The effects of ascorbate in combination with a pentaaza macrocyclic ring complex (GC4419) was tested in a clonogenic cell survival assay to determine the effects of the combination alone and when paired with ionizing radiation. Human head and neck squamous cell carcinoma cells (SQ20B) were plated and grown in culture for 48 hours. The cells were then treated with 5 μM GC4419 for 24 hours and 10 pmol/cell ascorbate (AA) for 1 hour, either alone, in combination (GC+AA), and/or paired with a dose of ionizing radiation (2 Gy). After the ionizing radiation dose, the cells were trypsinized, counted, replated at varying lower densities and incubated. Plates were stained and counted for clonogenic survival assays.
FIG. 8 is a graph showing the surviving fraction of SQ20B cells treated with ascorbate and combinations including ascorbate. The effects of ascorbate in combination with a pentaaza macrocyclic ring complex (GC4419) was tested in a clonogenic cell survival assay to determine the effects of the combination alone and when paired with the chemotherapeutic agent cisplatin. Human head and neck squamous cell carcinoma cells (SQ20B) were plated and grown in culture for 48 hours. The cells were then treated with cisplatin for 6 hours, 10 μM GC4419 for 3 hours, and 10 pmol/cell ascorbate (AA) for 1 hour. The cells were then trypsinized, counted, replated at varying lower densities and incubated. Plates were stained and counted for clonogenic survival assays.
as §3, with “The effect” for “FIG. 5 is a plot showing the surviving fraction”, “ascorbate was tested in” for “SQ20B cells for increasing amounts of ascorbate, as determined by”, “assay” for “assay used”
The effects of ascorbate in combination with a pentaaza macrocyclic ring complex (GC4419) was tested in a clonogenic cell survival assay to determine the effects of the combination alone and when paired with ionizing radiation. Human head and neck squamous cell carcinoma cells (SQ20B) were plated and grown in culture for 48 hours. […] After the ionizing radiation dose, the cells were trypsinized, counted, replated at varying lower densities and incubated. Plates were stained and counted for clonogenic survival assays. […]

[Cl][Mn][Cl].c1cc2nc(c1)CN[C@H]1CCCC[C@@H]1NCCN[C@H]1CCCC[C@@H]1NC2 [GC4419]
oral mucositis [1]: reduce oral mucositis | pulmonary disease [2]: attenuate VEGFr inhibitor-induced pulmonary disease | synergistic activity of the combination ([3]; 5 μM GC4419 3 h + 10 pmol/cell ascorbate 1 h (GC+AA), FIG. 6): more than merely an additive effect | cell killing (clonogenic survival) ([3]; 5 μM GC4419 3 h + 10 pmol/cell ascorbate 1 h (GC+AA), compared to control and to either alone, FIG. 6): significant enhancements in cell killing | sensitization to ionizing radiation ([3]; GC+AA+IR (2 Gy) compared to IR 2Gy alone, FIG. 6): sensitized the cancer cells to radiation | cell killing (clonogenic survival) ([3]; ascorbate 1 h in combination with 5, 10 or 20 μM GC4419 24 h, compared to monotherapies, FIG. 4): significant enhancements in cell killing | synergistic activity of the combination ([4]; 5 μM GC4419 24 h + 10 pmol/cell ascorbate 1 h (GC+AA), FIG. 7): more than merely an additive effect | cell killing (clonogenic survival) ([4]; 5 μM GC4419 24 h + 10 pmol/cell ascorbate 1 h (GC+AA), compared to control and to each alone, FIG. 7): significant enhancements in cell killing | cytotoxicity (clonogenic survival) ([4]; 5-20 pmol/cell ascorbate 1 h in combination with 5, 10 or 20 μM GC4419 24 h, FIG. 5): increases the cytotoxicity of GC4419 or ascorbate | sensitization to ionizing radiation ([4]; GC+AA+IR (2 Gy) compared to IR 2Gy alone, FIG. 7): sensitized the cancer cells to radiation | cell killing (clonogenic survival) ([4]; cisplatin 6 h + 10 μM GC4419 3 h + 10 pmol/cell ascorbate 1 h, compared to control and cisplatin, GC4419 or ascorbate monotherapies, FIG. 8): significant enhancements in cell killing
